Assay results as given in patent US20050014160A1, “Assays for protease enzyme activity” (priority 2003, published 2005).
Square brackets hold non-standard residues; d marks the D form. Ends that are not written are not given here. Sta = CC(C)C[C@H](N)[C@@H](O)CC(=O)O

How the values were obtained:
β-secretase [1] = biological target: T1, β-secretase (Homo sapiens, UniProt P56817); experiment: QTL/QTP assay for β-secretase activity with quencher-tether-biotin peptide substrates; assay type: biochemical
Method: In a 384-well plate, […] of β-secretase peptide substrate solution of appropriate concentration was mixed with a given amount of β-secretase enzyme in a total volume of […] in assay buffer. In the same plate, a control experiment was also set up where the same amount of peptide was taken in assay buffer but no enzyme was added. The experiments were usually done in triplicate sets for both sample and control. After a given time period of incubation at CRT, the fluorescent polymer in polymer buffer was added to the sample and control wells. The well plate was shaken inside the plate reader and the fluorescence intensity of the samples was measured. The difference in relative fluorescence units between sample and control wells is a measure of enzyme activity.
In the above example, the polymer can include any of the following: • A. Biotin binding protein (BBP) functionalized polystyrene latex carboxylic acid microspheres that are coated with conjugated polymer 1; • B. Solution complex of BBP and biotinylated polymer 2; • C. Microspheres as in A that are doped with a small amount of Phycoerythrin or related fluorescent protein conjugated to biotin; • D. Solution Sensor as in B doped with a small amount of Phycoerythrin or related fluorescent protein conjugated to biotin; and • E. Covalent conjugate of Phycoetythrin or another fluorescent protein and BBP. […]
The assay performance was further improved when the polymer microsphere sample A was doped with a small amount of Biotin-R-Phycoerythrin (Biotin-R-PE) conjugate. In one experiment, BSEC-1, BSEC-3 (a,b) (same peptide substrate synthesized by different vendors) and BSEC-4 were all exposed to β-secretase enzyme under identical conditions to compare their efficiencies in the assay. Polymer sample C was prepared fresh just before the start of experiment by mixing together Polymer A and Biotin-R-PE in a ratio designed to provide 5×10^6 microspheres doped with 100 fmol of Biotin-R-PE per well in a volume of 10 μL.
To 5 μL of a 300 nM solution of each peptide substrate in assay buffer in separate wells was added 10 ng of β-secretase enzyme in 5 μL of assay buffer to start the reactions. Each reaction was performed in triplicate. Controls were performed for each peptide without enzyme in quadruplicate. The samples were incubated at CRT for 60 minutes. At the end of the incubation period, the Biotin-R-PE doped polymer C was added to each well. The plate was shaken in the plate reader for 60 seconds, then probed for emission at 576 nm by exciting at 440 nm and using 475 nm cut-off filter. BSEC-1 gave RFU values of 6270±196 for control and 9645±152 for sample. BSEC-3a gave RFUs of 7656±20 for control and 15022±743 for sample while BSEC-3b gave RFUs of 6054±41 and 12265±913 for control and sample respectively. In comparison, BSEC-4 gave values of 9207±364 and 9732±319 for control and sample respectively.
The polymer solution sensor B was prepared by mixing together 56.5 nmol of Avidin (Biotin binding protein, BBP) and 848 nmol of biotinylated PPE polymer 2 in a total volume of 11.3 μL and incubating at CRT for 24 hours. The polymer and the BBP combine with each other through the biotin-avidin interaction to form stable entities. The solution sensor thus prepared was diluted appropriately with polymer buffer at the beginning of each experiment.
To 5 μL of a 400 nM solution of BSEC-1 in assay buffer in a 384 well plate was added 30 ng of β-secretase dissolved in 5 μL of assay buffer. The mixture was made in triplicate and incubated for 30 minutes at CRT. The control wells contained only peptide and no enzyme. After incubation, a 100-fold dilution of the above solution sensor was added at 20 μL to each well. The plate was shaken inside the microplate reader and the wells were probed by exciting the polymer at 440 nm and measuring emission intensity at 530 run. The control wells gave an average RFU value of 5400±200 and the sample wells containing enzyme gave RFU of 8350±200. […]

[2] = biological target: Streptavidin-B-Phycoerythrin conjugate (SAv-BPE) (Streptomyces avidinii, UniProt P22629); experiment: Superquenching of fluorescent conjugate by β-secretase peptide substrate (Stern-Volmer); details: 2.5 nM solution of the fluorescent conjugate SAv-BPE
Text: In another embodiment of the invention, the fluorescent polymer is a biological ensemble comprising phycoerythrin or phycobilisome.

β-secretase [3] = biological target: T1, β-secretase; experiment: QTL assay for inhibition of β-secretase activity by a known inhibitor; assay type: biochemical; details: for delta-over-control RFU: BSEC-1 substrate, 30 ng β-secretase, 15 minutes, Polymer A, without inhibitor 4468±85
Text: In another embodiment, the QTL assay is capable of detecting the inhibition of β-secretase activity in unknown samples. Whereas, in the absence of any inhibitory substance in the reaction mixture, the enzyme would cleave a large portion of the reactive tether present, in the presence of an effective inhibitor, the enzyme loses most of its activity. The QTL assay provides evidence of partial or total inhibition of enzyme activity through a lowering or complete lack of “fluorescence recovery” in such samples.
The structure of the statine-derived peptide inhibitor of β-secretase is given below:
STA-200 is a well-known inhibitor of β-secretase activity. To 2.5 μL of an 800 nM solution of BSEC-1 in assay buffer was added 30 ng of β-secretase and the volume made up to a total of 10 μL with assay buffer. In another well, 2.5 μL of 800 nM BSEC-1 solution was incubated with a pre-mixed solution of 2.5 μL of STA-200 solution and 30 ng of β-secretase so that the final volume is again 10 μL. Two control reactions were also set up in separate wells where one had only peptide in assay buffer while the other had peptide and inhibitor incubating in assay buffer. All samples were incubated at CRT for 15 minutes followed by the addition to each of 19.2 μL of Polymer A suspension (1×10^7 microspheres) in polymer buffer. The mixtures were then probed for emission at 530 nm by exciting them at 440 nm and using 475 nm cut-off filter. The mixture of peptide and enzyme alone gave a delta-over-control RFU of 4468±85. In comparison, a mixture of peptide, enzyme and 60 nM STA-200 (600 fmol) gave a delta-over-control RFU of 2746±241 while a mixture containing 250 nM STA-200 (2.5 pmol) gave a corresponding value of only 865±178.

Caspase-3 enzyme = Caspase-3 enzyme (Homo sapiens, UniProt P42574); details: Example 10, peptide substrate with Caspase-3 at CRT; control without enzyme remains unchanged
Method: To a known amount of the peptide substrate represented by SEQ ID NO:8 in assay buffer is added a sample solution of Caspase-3 enzyme in one well of a 384-well plate. In another well, the peptide substrate is taken without enzyme. The plate is incubated at CRT and the sample and control wells measured for fluorescence intensity at various time periods. […] An assay of this type is represented in FIG. 3.

[4] = Example 7: 300 nM substrate, 20 ng β-secretase, 30 minutes, SAv-BPE (Polymer E), ex 490 nm/em 576 nm
[5] = Example 7: 300 nM substrate, no enzyme, 30 minutes, SAv-BPE (Polymer E), ex 490 nm/em 576 nm
[6] = Example 3: 300 nM substrate, 10 ng β-secretase, 60 minutes at CRT, Biotin-R-PE doped polymer C, ex 440 nm/em 576 nm
[7] = Example 3: 300 nM substrate, no enzyme, 60 minutes at CRT, Biotin-R-PE doped polymer C, ex 440 nm/em 576 nm

T1 sequence (P56817 46-501): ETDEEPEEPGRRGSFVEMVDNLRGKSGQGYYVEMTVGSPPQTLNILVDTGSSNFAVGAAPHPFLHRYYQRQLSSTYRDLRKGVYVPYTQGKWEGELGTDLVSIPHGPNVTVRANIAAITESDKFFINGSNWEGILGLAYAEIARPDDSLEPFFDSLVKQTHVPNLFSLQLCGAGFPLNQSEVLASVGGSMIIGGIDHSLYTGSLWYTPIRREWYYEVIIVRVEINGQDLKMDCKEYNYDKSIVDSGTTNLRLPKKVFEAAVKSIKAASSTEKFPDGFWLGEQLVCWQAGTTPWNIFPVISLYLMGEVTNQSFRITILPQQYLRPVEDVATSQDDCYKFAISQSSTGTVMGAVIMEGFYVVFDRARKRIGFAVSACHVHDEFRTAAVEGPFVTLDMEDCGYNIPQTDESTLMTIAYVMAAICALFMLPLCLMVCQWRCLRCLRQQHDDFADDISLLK
Sequence of Caspase-3 enzyme (P42574 29-175 limits assumed, species assumed): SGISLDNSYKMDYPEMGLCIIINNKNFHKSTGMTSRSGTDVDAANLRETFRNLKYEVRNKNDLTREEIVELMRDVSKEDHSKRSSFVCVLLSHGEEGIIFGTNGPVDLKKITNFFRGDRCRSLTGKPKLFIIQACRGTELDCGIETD
Sequence of Caspase-3 enzyme (P42574 176-277 limits assumed, species assumed): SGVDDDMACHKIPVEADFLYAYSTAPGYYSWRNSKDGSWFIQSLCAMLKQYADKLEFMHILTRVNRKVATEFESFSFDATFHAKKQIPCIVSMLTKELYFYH
Sequence of Streptavidin-B-Phycoerythrin conjugate (SAv-BPE) (P22629 25-183): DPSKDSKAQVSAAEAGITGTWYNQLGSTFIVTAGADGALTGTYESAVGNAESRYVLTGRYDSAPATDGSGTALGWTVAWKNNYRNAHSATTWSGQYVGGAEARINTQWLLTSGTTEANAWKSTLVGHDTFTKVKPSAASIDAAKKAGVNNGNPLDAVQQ
Sequence of Streptavidin-B-Phycoerythrin conjugate (SAv-BPE) (P11392 whole entry partner): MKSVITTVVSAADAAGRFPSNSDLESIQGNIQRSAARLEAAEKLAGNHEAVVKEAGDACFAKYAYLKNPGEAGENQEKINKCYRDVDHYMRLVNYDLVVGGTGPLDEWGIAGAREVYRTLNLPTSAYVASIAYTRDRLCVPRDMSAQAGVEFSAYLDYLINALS
Sequence of Streptavidin-B-Phycoerythrin conjugate (SAv-BPE) (P11393 whole entry partner): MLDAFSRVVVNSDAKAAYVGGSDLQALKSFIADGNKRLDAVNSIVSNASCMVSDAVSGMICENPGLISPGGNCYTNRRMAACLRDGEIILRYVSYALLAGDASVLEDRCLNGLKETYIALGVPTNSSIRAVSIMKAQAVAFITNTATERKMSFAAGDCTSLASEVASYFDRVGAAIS

Work on “(AZO)-TEEISEVNLDAEFK-(Nε-Biotin) [BSEC-3]” yielded an RFU of sample (β-secretase [1]; Example 2: 400 nM substrate, 60 ng β-secretase, ten minutes at CRT, polymer A, ex 440 nm/em 530 nm) of 10996±424 RFU, an RFU of control (β-secretase [1]; Example 2: 400 nM substrate, no enzyme, ten minutes at CRT, polymer A, ex 440 nm/em 530 nm) of 8111±707 RFU and an RFU of sample (β-secretase [1]; Example 3: 300 nM substrate, 10 ng β-secretase, 60 minutes at CRT, Biotin-R-PE doped polymer C, ex 440 nm/em 576 nm, listed as BSEC-3a) of 15022±743 RFU. It also gave an RFU of sample (β-secretase [1]; Example 3: 300 nM substrate, 10 ng β-secretase, 60 minutes at CRT, Biotin-R-PE doped polymer C, ex 440 nm/em 576 nm, listed as BSEC-3b) of 12265±913 RFU, an RFU of control (β-secretase [1]; Example 3: 300 nM substrate, no enzyme, 60 minutes at CRT, Biotin-R-PE doped polymer C, ex 440 nm/em 576 nm, listed as BSEC-3a) of 7656±20 RFU and an RFU of control (β-secretase [1]; Example 3: 300 nM substrate, no enzyme, 60 minutes at CRT, Biotin-R-PE doped polymer C, ex 440 nm/em 576 nm, listed as BSEC-3b) of 6054±41 RFU. For the same substance, the “average RFU of sample wells” value (β-secretase [1]; Example 6: 300 nM substrate, 30 ng β-secretase, 30 minutes at CRT, doped solution sensor D, ex 440 nm/em 576 nm) was 14500±200 RFU, the “average RFU of control wells” value (β-secretase [1]; Example 6: 300 nM substrate, no enzyme, 30 minutes at CRT, doped solution sensor D, ex 440 nm/em 576 nm) was 5200±100 RFU and the “average RFU of enzyme wells” value (β-secretase [1]; [4]) was 18032±228 RFU. For the same substance, the “average RFU of control wells” value (β-secretase [1]; [5]) was 11639±335 RFU.
In the case of “(AZO)-TKKISEVNLDAEFRK-(Nε-Biotin) [BSEC-4]”, the RFU of sample (β-secretase [1]; [6]) is reported as 9732±319 RFU and the RFU of control (β-secretase [1]; [7]) is reported as 9207±364 RFU.
“(QSY-7)-TEEISEVNLDAEFK-(Nε-Biotin) [BSEC-1]” was tested, and the Stem-Volmer quenching constant [2] was roughly 1e+08 M⁻¹, the “relative fluorescence units (RFU) of sample” value (β-secretase [1]; Example 1: 400 nM substrate, 20 ng β-secretase, 30 min at CRT, polymer A, ex 420 nm/em 530 nm) was 9045±109 RFU and the “relative fluorescence units (RFU) of control” value (β-secretase [1]; Example 1: 400 nM substrate, no enzyme, 30 min at CRT, polymer A, ex 420 nm/em 530 nm) was 5529±286 RFU. For the same substance, the RFU of sample (β-secretase [1]; [6]) was 9645±152 RFU, the RFU of control (β-secretase [1]; [7]) was 6270±196 RFU and the “RFU of sample wells containing enzyme” value (β-secretase [1]; Example 5: 400 nM substrate, 30 ng β-secretase, 30 minutes at CRT, solution sensor polymer B, ex 440 nm/em 530 nm) was 8350±200 RFU. The “average RFU of control wells” value (β-secretase [1]; Example 5: 400 nM substrate, no enzyme, 30 minutes at CRT, solution sensor polymer B, ex 440 nm/em 530 nm) was 5400±200 RFU, the “average RFU of enzyme wells” value (β-secretase [1]; [4]) was 11828±556 RFU and the “average RFU of control wells” value (β-secretase [1]; [5]) was 7671±286 RFU. For the same substance, the “delta-over-control RFU, peptide and enzyme alone” value (β-secretase [1]; Example 8: 2.5 μL of 800 nM substrate, 30 ng β-secretase, no inhibitor, 15 minutes at CRT, Polymer A, ex 440 nm/em 530 nm) was 4468±85 RFU.
In the case of “KTEISEVN-(Sta)-VAEF-OH (KTEISEVN[Sta]VAEF-OH; N-terminus assumed; SMILES CC[C@H](C)[C@H](NC(=O)[C@H](CCC(=O)O)NC(=O)[C@@H](NC(=O)[C@@H](N)CCCCN)[C@@H](C)O)C(=O)N[C@@H](CO)C(=O)N[C@@H](CCC(=O)O)C(=O)N[C@H](C(=O)N[C@@H](CC(N)=O)C(=O)N[C@@H](CC(C)C)[C@@H](O)CC(=O)N[C@H](C(=O)N[C@@H](C)C(=O)N[C@@H](CCC(=O)O)C(=O)N[C@@H](Cc1ccccc1)C(=O)O)C(C)C)C(C)C) [STA-200]”, the “delta-over-control RFU” value (β-secretase [3]; 60 nM STA-200 (600 fmol)) is reported as 2746±241 RFU, the “delta-over-control RFU” value (β-secretase [3]; 250 nM STA-200 (2.5 pmol)) is reported as 865±178 RFU and the IC50 value (β-secretase [3]; sample incubated for fifteen minutes) is reported as “in the range of nanomolar concentrations”.
With D-E-V-D-Cyanine [SEQ ID NO:8] the “fluorescence intensity of sample with increasing time” value (Caspase-3 enzyme) was “increase in fluorescence”.
